Source: publication PMC7496931, “Activation of Sirtuin 2 Inhibitors Employing Photoswitchable Geometry and Aqueous Solubility” (Chemmedchem, 2020)

Molecular target: T1, Sirt2 (Homo sapiens, UniProt Q8IXJ6)
T1 construct: Expression and purification of Sirt1_133−747, Sirt2_56−356, and Sirt3_118−395 was carried out as described previously; made in house
T1 sequence (Q8IXJ6 56-356): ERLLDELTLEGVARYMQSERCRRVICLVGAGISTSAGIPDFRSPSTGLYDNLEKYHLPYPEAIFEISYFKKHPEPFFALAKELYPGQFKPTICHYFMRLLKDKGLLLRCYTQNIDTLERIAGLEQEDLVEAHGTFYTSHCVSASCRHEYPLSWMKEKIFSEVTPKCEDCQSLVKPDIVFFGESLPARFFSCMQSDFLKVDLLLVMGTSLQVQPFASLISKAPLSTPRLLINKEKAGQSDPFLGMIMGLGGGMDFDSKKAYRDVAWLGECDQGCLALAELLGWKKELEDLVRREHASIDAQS
Assay: FP-based binding assay (competition with fluorescently labelled SirReal probe)
Parameters: key to Sirt2 inhibition FP-Assay (class): n.i. = no inhibition detected
Text: This conformational change is also observed upon binding of numerous other compounds as myristoylated substrates, for instance.23 A recently developed fluorescence polarization (FP)‐based binding assay was utilized to determine whether our compounds are able to prevent binding of a fluorescently labelled SirReal to the catalytic core of Sirt2.7 Serendipitously, competition with the fluorescent probe could be confirmed for 7 f (Table S3). […] Therefore, this scaffold seemed to be a promising structure for further derivatization. […]
yielding the percentage substrate conversion. Comparison of the determined substrate conversion with a no-inhibition DMSO control yields the percentage inhibition at the respective […]
For determination of IC50, inhibitory activity of the respective compound was determined at 8 to 10 distinct concentrations. The measured values were analysed by a non-linear fit to the dose-response curve using a four parameter logistic model (Figure S6):
Figure S6: Non-linear regression of the dose-response curves of compounds 15c and 15f at the thermal equilibrium (∆, black) and after 5 minutes of 365 nm irradiation (red). […]
before 5 µL of the solution of 21 (40 nM final assay concentration) were added. After further 30 min of incubation at 37 °C the fluorescence intensities were recorded with an EnVisionTM plate reader (PerkinElmer) with the following settings: optical module – BODIPY TMR FP, excitation filter – FP 531 nm, emission filter 1 – FP p-pol 595 nm, emission filter 2 – FP s-pol 595 nm. Fluorescence polarization (P) values were determined as […] (mP), […]
where Is/IP are the fluorescence intensities measured in the s- and the p-plane respectively, both blank corrected. […] Inhibition was calculated from fluorescence polarization in relation to the maximal polarization and minimal […]
Table S3: Compounds 7c, 7f and 9a examined in the FP-based binding assay and in the ZMAL activity assay. Inhibition of Sirt2 in the FP-based binding assay indicates displacement of the fluorescence-labelled SirReal probe and implies a similar binding mode. […]

NC(=O)c1cncc(/N=N/c2c(O)ccc3ccccc23)c1 [7 c]
Sirt2 inhibition FP-Assay (class): n.i.

Cc1cc(/N=N/c2cncc(C(N)=O)c2)cc(C)c1N [7 f]
inhibition at 10 µM (@ 10 µM, read-out: Sirt2 inhibition FP-Assay, % inhibition of binding of the fluorescent probe): 46%

CC(=O)Nc1c(C)cc(/N=N/c2cncc(C(N)=O)c2)cc1C [9 a]
inhibition at 100 µM (@ 100 µM, read-out: Sirt2 inhibition FP-Assay, % inhibition of binding of the fluorescent probe): 69%
